Results taken from patent US7491794B2, “Macrocyclic compounds as inhibitors of viral replication” (Intermune, Inc., priority 2003, dated 2009).

Legend:
[1] = tested on: HCV sub-genomic replicon, GS4.3; assay: Quantitation by ELISA of NPTII in the HCV sub-genomic replicon, GS4.3, Section C; type: cell-based; conditions: Hepatitis C virus; GS4.3 cells, 72 h incubation; read-out: EC50
From the text: Quantitation by ELISA of the selectable marker protein, Neomycin phosphotransferase II (NPTII) in the HCV Sub-Genomic Replicon, GS4.3
The HCV sub-genomic replicon (1377/NS3-3′, accession No. AJ242652), stably maintained in HuH-7 hepatoma cells, was created by Lohmann et al. Science 285: 110-113 (1999). The replicon-containing cell culture, designated GS4.3, was obtained from Dr. Christoph Seeger of the Institute for Cancer Research, Fox Chase Cancer Center, Philadelphia, Pa.
GS4.3 cells were maintained at 37° C., 5% CO2, in DMEM (Gibco 11965-092) supplemented with L-glutamine 200 mM (100×) (Gibco25030-081), non-essential amino acids (NEAA)(Biowhittaker 13-114E), heat-inactivated (HI) Fetal Bovine Serum(FBS)(Hyclone SH3007.03) and 750 μg/ml geneticin (G418)(Gibco 10131-035). Cells were sub-divided 1:3 or 4 every 2-3 days.
24 h prior to the assay, GS4.3 cells were collected, counted, and plated in 96-well plates (Costar 3585) at 7500 cells/well in 100 μl standard maintenance medium (above) and incubated in the conditions above. To initiate the assay, culture medium was removed, cells were washed once with PBS (Gibco 10010-023) and 90 μl Assay Medium (DMEM, L-glutamine, NEAA, 10% HI FBS, no G418) was added. Inhibitors were made as a 10× stock in Assay Medium, (3-fold dilutions from 10 μM to […] final concentration, final DMSO concentration 1%), 10 μl were added to duplicate wells, plates were rocked to mix, and incubated as above for 72 h.
An NPTII Elisa kit was obtained from AGDIA, Inc. (Compound direct ELISA test system for Neomycin Phosphotransferase II, PSP 73000/4800). Manufacturer's instructions were followed, with some modifications. 10×PEB-1 lysis buffer was made up to include 500 μM PMSF (Sigma P7626, 50 mM stock in isopropanol). After 72 h incubation, cells were washed once with PBS and 150 μl PEB-1 with PMSF was added per well. Plates were agitated vigorously for 15 minutes, room temperature, then frozen at −70° C. Plates were thawed, lysates were mixed thoroughly, and 100 μl were applied to an NPTII Elisa plate. A standard curve was made. Lysate from DMSO-treated control cells was pooled, serially diluted with PEB-1 with PMSF, and applied to duplicate wells of the ELISA plate, in a range of initial lysate amount of 150u1-2.5 ul. In addition, 100 μl buffer alone was applied in duplicate as a blank. Plates were sealed and gently agitated at room temperature for 2 h. Following capture incubation, the plates were washed 5×300 μl with PBS-T (0.5% Tween-20, PBS-T was supplied in the ELISA kit). For detection, a 1× dilution of enzyme conjugate diluent MRS-2 (5×) was made in PBS-T, into which 1:100 dilutions of enzyme conjugates A and B were added, as per instructions. Plates were resealed, and incubated with agitation, covered, room temperature, for 2 h. The washing was then repeated and 100 μl of room temperature TMB substrate was added. After approximately 30 minutes incubation (room temperature, agitation, covered), the reaction was stopped with 50 μl 3M sulfuric acid. Plates were read at 450 nm on a Molecular Devices Versamax plate reader.
Inhibitor effect was expressed as a percentage of DMSO-treated control signal, and inhibition curves were calculated using a 4-parameter equation: y=A+((B−A)/(1+((C/x)^D))), where C is half-maximal activity or EC50.

NS3-NS4 protease = biological target: T1, NS3-NS4 protease (Hepatitis C virus genotype 1a, UniProt P27958); assay: NS3-NS4 protease assay / NS3 inhibition assay, Section C; type: biochemical; conditions: read-out: NS3-NS4 IC50
T1 construct: Recombinant E. coli or Baculovirus full-length NS3 was diluted to 3.33 μM with assay buffer; made in house; host or cells: E. coli or baculovirus (BV) system
Method: NS3 complex formation with NS4A-2.
Recombinant E. coli or Baculovirus full-length NS3 was diluted to 3.33 μM with assay buffer and transfered material to an eppendorf tube and place in water bath in 4° C. refrigerator. The appropriate amount of NS4A-2 to 8.3 mM in assay buffer was added to equal the volume of NS3 in step 2.1.1 (conversion factor −3.8 mg/272 μL assay buffer). The material was transferred to an eppendorf tube and place in water bath in 4° C. refrigerator.
After equilibration to 4° C., equal volumes of NS3 and NS4A-2 solutions were combined in an eppendorf tube, mix gently with a manual pipettor, and incubate mixture for 15 minutes in the 4° C. water bath. Final concentrations in the mixture are […] NS3, 4.15 mM NS4A-2 (2485-fold molar excess NS4A-2).
After 15 minutes at 4° C., the NS3/NS4A-2 eppendorf tube was removed and place it in a room temperature water bath for 10 minutes. NS3/NS4A-2 was alliquoted at appropriate volumes and store at −80° C. (E. coli NS3 run at 2 nM in assay, aliquot at 25 μL. BV NS3 run at 3 nM in assay, aliquot at 30 μL).
Step 2.2.5. Sample compounds were dissolved to 10 mM in DMSO then diluted to 2.5 mM (1:4) in DMSO.
Step 2.2.6. The E. coli. NS3/NS4A-2 was diluted to 4 nM NS3 (1:417.5 of […] stock−18 μL 1.67 μM stock+7497 μL assay buffer). The BV NS3/NS4A-2 was diluted to 6 nM NS3 (1:278.3 of 1.67 μM stock−24 μL 1.67 μM stock+6655 μL assay buffer).
Step 2.2.7. Using the manual multichannel pipettor, and being careful not to introduce bubbles into the plate, 50 μL assay buffer were added to wells A01-H01 of a black Costar 96-well polypropylene storage plate.
Step 2.2.8. Using the manual multichannel pipettor, and being careful not to introduce bubbles into the plate, 50 μL of diluted NS3/NS4A-2 from step 2.2.6 were added to wells A02-H12 of plate in step 2.2.7.
Step 2.2.9. Using the manual multichannel pipettor, and being careful not to introduce bubbles into the plate, 25 μL of the wells in drug dilution plate in step 2.2.5 were transferred to corresponding wells in assay plate in step 2.2.8. The tips on multichannel pipettor were changed for each row of compounds transferred.
Step 2.2.10. Using the manual multichannel pipettor, and being careful not to introduce bubbles into the plate, the contents of the wells from the assay plate in step 2.2.9 were mixed by aspirating and dispensing 35 μL of the 75 μL in each well five times. The tips on the multichannel pipettor were changed for each row of wells mixed.
Step 2.2.11. The plate was covered with a polystyrene plate lid, and the plate from step 2.2.10 containing NS3 protease and sample compounds was pre-incubated 10 minutes at room temperature.
While the plate from step 2.2.11 was pre-incubating, the RETS1 substrate was diluted in a 15 mL polypropylene centrifuge tube. The RETS1 substrate was diluted to 8 μM (1:80.75 of 646 μM stock−65 μL 646 μM stock+5184 μL assay buffer).
After the plate in step 2.2.11 was done pre-incubating, and using the manual multichannel, 25 μL of substrate were added to all wells on the plate. The contents of the wells of plate were quickly mixed, as in step 2.2.10, but mixing 65 μL of the 100 μL in the wells.
The plate was read in kinetic mode on the Molecular Devices SpectraMax Gemini XS plate reader. Reader settings: Read time: 30 minutes, Interval: 36 seconds, Reads: 51, Excitation λ: 335 nm, Emission λ: 495 nm, cutoff: 475 nm, Automix: off, Calibrate: once, PMT: high, Reads/well: 6, Vmax pts: 21 or 28/51 depending on length of linearity of reaction.
IC50s were determined using a four parameter curve fit equation, and converted to Ki's using the following Km's:
where Ki=IC50/(1+[S]/Km))

T1 sequence (P27958 1027-1657): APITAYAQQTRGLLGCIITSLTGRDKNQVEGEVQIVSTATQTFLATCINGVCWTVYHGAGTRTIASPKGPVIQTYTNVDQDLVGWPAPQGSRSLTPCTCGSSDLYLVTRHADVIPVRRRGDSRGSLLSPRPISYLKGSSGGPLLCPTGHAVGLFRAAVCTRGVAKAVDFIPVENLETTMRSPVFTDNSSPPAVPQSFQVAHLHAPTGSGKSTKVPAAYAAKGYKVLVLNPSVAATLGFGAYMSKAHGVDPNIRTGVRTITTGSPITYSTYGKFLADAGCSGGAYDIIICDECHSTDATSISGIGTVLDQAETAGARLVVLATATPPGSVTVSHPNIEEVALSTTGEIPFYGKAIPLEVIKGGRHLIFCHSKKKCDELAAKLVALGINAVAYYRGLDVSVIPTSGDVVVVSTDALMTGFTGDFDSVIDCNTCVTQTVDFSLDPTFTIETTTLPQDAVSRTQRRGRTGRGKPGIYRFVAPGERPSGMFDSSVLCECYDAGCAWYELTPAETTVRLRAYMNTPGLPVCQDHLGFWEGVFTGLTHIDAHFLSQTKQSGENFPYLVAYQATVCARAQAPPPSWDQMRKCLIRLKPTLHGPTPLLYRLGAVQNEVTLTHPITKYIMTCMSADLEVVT

SMILES | EC50 [1] [µM] | IC50 (NS3-NS4 protease) [µM]
CC(C)N(C(C)C)S(=O)(=O)NC(=O)[C@@]12C[C@H]1/C=C\CCCCC[C@H](NC(=O)OC(C)(C)C)C(=O)N1C[C@H](OC(=O)N3Cc4ccccc4C3)C[C@H]1C(=O)N2 [Compound 126, (1S,4R,6S,14S,18R)-1,3-Dihydro-isoindole-2-carboxylic acid 14-tert-butoxycarbonylamino-4-(N,N-diisopropylaminosulfonyl-aminocarbonyl)-2,15-dioxo-3,16-diaza-tricyclo[14.3.0.0^4,6]nonadec-7-en-18-yl ester] | < 0.1 | < 0.1
CC(C)(C)OC(=O)N[C@H]1CCCCC/C=C\[C@@H]2C[C@@]2(C(=O)NS(=O)(=O)Nc2ccc(C#N)cc2)NC(=O)[C@@H]2C[C@@H](OC(=O)N3Cc4ccccc4C3)CN2C1=O [Compound 131, (1S,4R,6S,14S,18R)-1,3-Dihydro-isoindole-2-carboxylic acid 14-tert-butoxycarbonylamino-4-(4-cyanophenylaminosulfonyl-aminocarbonyl)-2,15-dioxo-3,16-diaza-tricyclo[14.3.0.0^4,6]nonadec-7-en-18-yl ester] | < 0.1 | < 0.1
CC(C)(C)OC(=O)N[C@H]1CCCCC/C=C\[C@@H]2C[C@@]2(C(=O)NS(=O)(=O)N2CCCC2)NC(=O)[C@@H]2C[C@@H](OC(=O)N3Cc4ccc(Cl)cc4C3)CN2C1=O [Compound 115, (1S,4R,6S,14S,18R)-5-Chloro-1,3-Dihydro-isoindole-2-carboxylic acid 14-tert-butoxycarbonylamino-4-(pyrrolidino-sulfonyl-aminocarbonyl)-2,15-dioxo-3,16-diaza-tricyclo[14.3.0.0^4,6]nonadec-7-en-18-yl ester] | < 0.1 | < 0.1
CN(C)S(=O)(=O)NC(=O)[C@@]12C[C@H]1/C=C\CCCCC[C@H](NC(=O)OC(C)(C)C)C(=O)N1C[C@H](OC(=O)N3Cc4ccc(Cl)cc4C3)C[C@H]1C(=O)N2 [Compound 113, (1S,4R,6S,14S,18R)-5-Chloro-1,3-Dihydro-isoindole-2-carboxylic acid 14-tert-butoxycarbonylamino-4-(N,N-dimethylsulfonyl-aminocarbonyl)-2,15-dioxo-3,16-diaza-tricyclo[14.3.0.0^4,6]nonadec-7-en-18-yl ester] | < 0.1 | < 0.1
Cc1ccc(NS(=O)(=O)NC(=O)[C@@]23C[C@H]2/C=C\CCCCC[C@H](NC(=O)OC(C)(C)C)C(=O)N2C[C@H](OC(=O)N4Cc5ccccc5C4)C[C@H]2C(=O)N3)cc1 [Compound 130, (1S,4R,6S,14S,18R)-1,3-Dihydro-isoindole-2-carboxylic acid 14-tert-butoxycarbonylamino-4-(4-methylphenylaminosulfonyl-aminocarbonyl)-2,15-dioxo-3,16-diaza-tricyclo[14.3.0.0^4,6]nonadec-7-en-18-yl ester] | < 0.1 | < 0.1
CN1CCN(S(=O)(=O)NC(=O)[C@@]23C[C@H]2/C=C\CCCCC[C@H](NC(=O)OC(C)(C)C)C(=O)N2C[C@H](OC(=O)N4Cc5ccccc5C4)C[C@H]2C(=O)N3)CC1 [Compound 118, (1S,4R,6S,14S,18R)-1,3-Dihydro-isoindole-2-carboxylic acid 14-tert-butoxycarbonylamino-4-(4-methylpiperazine-1-sulfonyl-aminocarbonyl)-2,15-dioxo-3,16-diaza-tricyclo[14.3.0.0^4,6]nonadec-7-en-18-yl ester] | < 0.1 | < 0.1
CC(C)(C)OC(=O)N[C@H]1CCCCC/C=C\[C@@H]2C[C@@]2(C(=O)NS(=O)(=O)NC2CCCCC2)NC(=O)[C@@H]2C[C@@H](OC(=O)N3Cc4ccccc4C3)CN2C1=O [Compound 135, (1S,4R,6S,14S,18R)-1,3-Dihydro-isoindole-2-carboxylic acid 14-tert-butoxycarbonylamino-4-(cyclohexylaminosulfonyl-aminocarbonyl)-2,15-dioxo-3,16-diaza-tricyclo[14.3.0.0^4,6]nonadec-7-en-18-yl ester] | < 0.1 | < 0.1
CC(C)(C)OC(=O)N[C@H]1CCCCC/C=C\[C@@H]2C[C@@]2(C(=O)NS(=O)(=O)NC2CCC2)NC(=O)[C@@H]2C[C@@H](OC(=O)N3Cc4ccccc4C3)CN2C1=O [Compound 133, (1S,4R,6S,14S,18R)-1,3-Dihydro-isoindole-2-carboxylic acid 14-tert-butoxycarbonylamino-4-(cyclobutylaminosulfonyl-aminocarbonyl)-2,15-dioxo-3,16-diaza-tricyclo[14.3.0.0^4,6]nonadec-7-en-18-yl ester] | < 0.1 | < 0.1
